17 compounds from US20250304559A1, “Ether-Linked Antiviral Compounds” (Pfizer Inc., priority 2021, published 2025) can be followed below.

The structures appear in SMILES notation. Counter-ions that a name gives are not always drawn. Like-named read-outs stand apart in the source and are kept apart here.

Assay [1] deals with SARS-CoV-2 (USA_WA1/2020). As to the kind of experiment: Antiviral Activity from SARS-CoV-2 Infection (cytopathic effect, Cell Titer-Glo). The class given is cell-based. To be noted: Severe acute respiratory syndrome coronavirus 2, Vero C1008, 72 h, VeroE6 cells enriched for hACE2, MOI 0.002, 3-day incubation; tested alone or with P-gp inhibitor CP-100356 2 μM (table does not say which); read-out: Geometric Mean EC50. For orientation: Cytopathic effects are the visible damage that an infection or toxin causes in cultured cells.

The target in another assay is T1, SARS-CoV-2 3CL protease (Severe acute respiratory syndrome coronavirus 2, UniProt P0DTD1).
T1 construct: measures the activity of full-length SARS-CoV-2 3CL protease
The experiment in a line: SARS-CoV-2 Coronavirus 3C Protease FRET Assay. The settings on record: Morrison equation fit, 15 nM enzyme, 25 μM peptide substrate. Format: biochemical.

[2] abbreviates: Examples 1-13, 60 minutes at 23° C., read-out: Geometric Mean Ki.
Where [3] appears, read: Examples 14-78 and 114 (second head of Table 2), read-out: Geometric Mean Ki (nM) IC50.

What is called EC50 is the concentration at which the effect is half-maximal. As a reminder, the Ki is the equilibrium dissociation constant of an inhibitor or competing ligand from its target. In the case of `Cn1nc(C(F)(F)F)cc1OCC(=O)[C@H](C[C@@H]1CCNC1=O)NC(=O)[C@@H]1[C@@H]2[C@H](CN1C(=O)[C@@H](NS(C)(=O)=O)C(C)(C)C)C2(C)C` [Example 7, (1R,2S,5S)-6,6-dimethyl-3-[3-methyl-N-(methylsulfonyl)-L-valyl]-N-{(2S)-4-{[1-methyl-3-(trifluoromethyl)-1H-pyrazol-5-yl]oxy}-3-oxo-1-[(3S)-2-oxopyrrolidin-3-yl]butan-2-yl}-3-azabicyclo[3.1.0]hexane-2-carboxamide], in assay [1], the EC50 was found to be 1260 nM. The Ki on SARS-CoV-2 3CL protease (setting [2]) stood at 2.88 nM.

Consider `Cn1nc(C(F)(F)F)cc1OCC(=O)[C@H](C[C@@H]1CCNC1=O)NC(=O)[C@@H]1[C@@H]2[C@H](CN1C(=O)[C@@H](NC(=O)C(F)(F)F)C(C)(C)C)C2(C)C` [Example 8, (1R,2S,5S)-6,6-dimethyl-3-[3-methyl-N-(trifluoroacetyl)-L-valyl]-N-{(2S)-4-{[1-methyl-3-(trifluoromethyl)-1H-pyrazol-5-yl]oxy}-3-oxo-1-[(3S)-2-oxopyrrolidin-3-yl]butan-2-yl}-3-azabicyclo[3.1.0]hexane-2-carboxamide], for which the EC50 in assay [1] was 49.1 nM. Moreover, the Ki on SARS-CoV-2 3CL protease (setting [2]) was found to be 2.87 nM.

On to `CC(C)[C@H](NC(=O)C(F)(F)F)C(=O)N1C[C@H]2[C@@H]([C@H]1C(=O)N[C@@H](C[C@@H]1CCNC1=O)C(=O)COc1cc(C(F)(F)F)nn1C)C2(C)C` [Example 9, (1R,2S,5S)-6,6-dimethyl-N-{(2S)-4-{[1-methyl-3-(trifluoromethyl)-1H-pyrazol-5-yl]oxy}-3-oxo-1-[(3S)-2-oxopyrrolidin-3-yl]butan-2-yl}-3-[N-(trifluoroacetyl)-L-valyl]-3-azabicyclo[3.1.0]hexane-2-carboxamide, trifluoroacetate salt], for which the EC50 in assay [1] turned out to be 265 nM. Also, the Ki at SARS-CoV-2 3CL protease (setting [2]) was 42.8 nM.

On to `CC(C)(C)[C@H](NS(=O)(=O)C(F)(F)F)C(=O)N1C[C@H]2[C@@H]([C@H]1C(=O)N[C@@H](C[C@@H]1CCNC1=O)C(=O)COc1cccc(C(F)(F)F)c1)C2(C)C` [Example 10, (1R,2S,5S)-6,6-dimethyl-3-{3-methyl-N-[(trifluoromethyl)sulfonyl]-L-valyl}-N-{(2S)-3-oxo-1-[(3S)-2-oxopyrrolidin-3-yl]-4-[3-(trifluoromethyl)phenoxy]butan-2-yl}-3-azabicyclo[3.1.0]hexane-2-carboxamide], for which the EC50 in assay [1] is 167 nM. Also, the Ki at SARS-CoV-2 3CL protease (setting [2]) was found to be 8.34 nM.

As for `CC(C)[C@H](NS(=O)(=O)C(F)(F)F)C(=O)N1C[C@H]2[C@@H]([C@H]1C(=O)N[C@@H](C[C@@H]1CCNC1=O)C(=O)COc1cc(C(F)(F)F)nn1C)C2(C)C` [Example 11, (1R,2S,5S)-6,6-dimethyl-N-{(2S)-4-{[1-methyl-3-(trifluoromethyl)-1H-pyrazol-5-yl]oxy}-3-oxo-1-[(3S)-2-oxopyrrolidin-3-yl]butan-2-yl}-3-{N-[(trifluoromethyl)sulfonyl]-L-valyl}-3-azabicyclo[3.1.0]hexane-2-carboxamide], the EC50 in assay [1] was determined as 2030 nM. The Ki on SARS-CoV-2 3CL protease (setting [2]) came out at 13.5 nM.

Take `CC(C)(C)[C@H](NC(=O)C(F)(F)F)C(=O)N1C[C@H]2[C@@H]([C@H]1C(=O)N[C@@H](C[C@@H]1CCNC1=O)C(=O)COc1cccc(C(F)(F)F)c1)C2(C)C` [Example 12, (1R,2S,5S)-6,6-dimethyl-3-[3-methyl-N-(trifluoroacetyl)-L-valyl]-N-{(2S)-3-oxo-1-[(3S)-2-oxopyrrolidin-3-yl]-4-[3-(trifluoromethyl)phenoxy]butan-2-yl}-3-azabicyclo[3.1.0]hexane-2-carboxamide]: the EC50 in assay [1] amounted to 51.2 nM. The Ki at SARS-CoV-2 3CL protease (setting [2]) was determined as 6.38 nM.

For the compound `CC(C)(C)[C@H](NS(C)(=O)=O)C(=O)N1C[C@H]2[C@@H]([C@H]1C(=O)N[C@@H](C[C@@H]1CCNC1=O)C(=O)COc1ccc(F)cc1F)C2(C)C` [Example 13, (1R,2S,5S)-N-{(2S)-4-(2,4-difluorophenoxy)-3-oxo-1-[(3S)-2-oxopyrrolidin-3-yl]butan-2-yl}-6,6-dimethyl-3-[3-methyl-N-(methylsulfonyl)-L-valyl]-3-azabicyclo[3.1.0]hexane-2-carboxamide], in assay [1], the EC50 amounted to 98.6 nM. The inhibitory constant (Ki) on SARS-CoV-2 3CL protease (setting [2]) amounted to 1.78 nM.

With `COc1ccc(COCC(=O)[C@H](C[C@@H]2CCNC2=O)NC(=O)[C@@H]2[C@@H]3[C@H](CN2C(=O)[C@@H](NC(=O)C(F)(F)F)C(C)(C)C)C3(C)C)cc1` [Example 14, (1R,2S,5S)-N-{(2S)-4-[(4-methoxyphenyl)methoxy]-3-oxo-1-[(3S)-2-oxopyrrolidin-3-yl]butan-2-yl}-6,6-dimethyl-3-[3-methyl-N-(trifluoroacetyl)-L-valyl]-3-azabicyclo[3.1.0]hexane-2-carboxamide], the EC50 in assay [1] is 48.7 nM. Moreover, the Ki at SARS-CoV-2 3CL protease (setting [3]) amounted to 3.48 nM.

Turning to `COC(=O)N[C@H](C(=O)N1C[C@H]2[C@@H]([C@H]1C(=O)N[C@@H](C[C@@H]1CCNC1=O)C(=O)COc1cccc(Cl)c1)C2(C)C)C(C)(C)C` [Example 16, methyl {(2S)-1-[(1R,2S,5S)-2-({(2S)-4-(3-chlorophenoxy)-3-oxo-1-[(3S)-2-oxopyrrolidin-3-yl]butan-2-yl}carbamoyl)-6,6-dimethyl-3-azabicyclo[3.1.0]hexan-3-yl]-3,3-dimethyl-1-oxobutan-2-yl}carbamate], in assay [1], the EC50 is 11.6 nM. Also, the Ki on SARS-CoV-2 3CL protease (setting [3]) amounted to 0.21 nM.

On to `COC(=O)N[C@H](C(=O)N1C[C@H]2[C@@H]([C@H]1C(=O)N[C@@H](C[C@@H]1CCNC1=O)C(=O)COc1cccc(C(F)(F)F)c1)C2(C)C)C(C)(C)C` [Example 17, methyl {(2S)-1-[(1R,2S,5S)-6,6-dimethyl-2-({(2S)-3-oxo-1-[(3S)-2-oxopyrrolidin-3-yl]-4-[3-(trifluoromethyl)phenoxy]butan-2-yl}carbamoyl)-3-azabicyclo[3.1.0]hexan-3-yl]-3,3-dimethyl-1-oxobutan-2-yl}carbamate], for which the EC50 in assay [1] was found to be 13.3 nM. Further, the Ki at SARS-CoV-2 3CL protease (setting [3]) was less than 0.443 nM.

As to `COC(=O)N[C@H](C(=O)N1C[C@H]2[C@@H]([C@H]1C(=O)N[C@@H](C[C@@H]1CCNC1=O)C(=O)COc1ccc(F)cc1)C2(C)C)C(C)(C)C` [Example 21, methyl {(2S)-1-[(1R,2S,5S)-2-({(2S)-4-(4-fluorophenoxy)-3-oxo-1-[(3S)-2-oxopyrrolidin-3-yl]butan-2-yl}carbamoyl)-6,6-dimethyl-3-azabicyclo[3.1.0]hexan-3-yl]-3,3-dimethyl-1-oxobutan-2-yl}carbamate], in assay [1], the EC50 was determined as 18.8 nM. Further, on SARS-CoV-2 3CL protease (setting [3]), the Ki came to 2.2 nM.

Take `COC(=O)N[C@H](C(=O)N1C[C@H]2[C@@H]([C@H]1C(=O)N[C@@H](C[C@@H]1CCNC1=O)C(=O)COc1ccccc1F)C2(C)C)C(C)(C)C` [Example 22, methyl {(2S)-1-[(1R,2S,5S)-2-({(2S)-4-(2-fluorophenoxy)-3-oxo-1-[(3S)-2-oxopyrrolidin-3-yl]butan-2-yl}carbamoyl)-6,6-dimethyl-3-azabicyclo[3.1.0]hexan-3-yl]-3,3-dimethyl-1-oxobutan-2-yl}carbamate]: the EC50 in assay [1] is 52 nM. Also, at SARS-CoV-2 3CL protease (setting [3]), the Ki came out at 4.78 nM.

Turning to `CC(C)[C@H](NC(=O)C(F)(F)F)C(=O)N1C[C@H]2[C@@H]([C@H]1C(=O)N[C@@H](C[C@@H]1CCNC1=O)C(=O)COc1ccccc1)C2(C)C` [Example 23, (1R,2S,5S)-6,6-dimethyl-N-{(2S)-3-oxo-1-[(3S)-2-oxopyrrolidin-3-yl]-4-phenoxybutan-2-yl}-3-[N-(trifluoroacetyl)-L-valyl]-3-azabicyclo[3.1.0]hexane-2-carboxamide], the EC50 in assay [1] is 32 nM. Moreover, the Ki on SARS-CoV-2 3CL protease (setting [3]) worked out at 1.78 nM.

Consider `COC(=O)N[C@H](C(=O)N1C[C@H]2[C@@H]([C@H]1C(=O)N[C@@H](C[C@@H]1CCNC1=O)C(=O)COc1ccc(F)cc1F)C2(C)C)C(C)(C)C` [Example 24, methyl {(2S)-1-[(1R,2S,5S)-2-({(2S)-4-(2,4-difluorophenoxy)-3-oxo-1-[(3S)-2-oxopyrrolidin-3-yl]butan-2-yl}carbamoyl)-6,6-dimethyl-3-azabicyclo[3.1.0]hexan-3-yl]-3,3-dimethyl-1-oxobutan-2-yl}carbamate], for which, in assay [1], the EC50 amounted to 17 nM. Moreover, on SARS-CoV-2 3CL protease (setting [3]), the Ki came out at 1.41 nM.

On to `COC(=O)N[C@H](C(=O)N1C[C@H]2[C@@H]([C@H]1C(=O)N[C@@H](C[C@@H]1CCNC1=O)C(=O)COc1cccc(Cl)c1)C2(C)C)C(C)C` [Example 25, methyl {(2S)-1-[(1R,2S,5S)-2-({(2S)-4-(3-chlorophenoxy)-3-oxo-1-[(3S)-2-oxopyrrolidin-3-yl]butan-2-yl}carbamoyl)-6,6-dimethyl-3-azabicyclo[3.1.0]hexan-3-yl]-3-methyl-1-oxobutan-2-yl}carbamate], for which the half-maximal effective concentration (EC50) in assay [1] was 38.2 nM. Besides, at SARS-CoV-2 3CL protease (setting [3]), the Ki is 1.76 nM.

As for `CCn1nc(C)cc1OCC(=O)[C@H](C[C@@H]1CCNC1=O)NC(=O)[C@@H]1[C@@H]2[C@H](CN1C(=O)[C@@H](NC(=O)C(F)(F)F)C(C)(C)C)C2(C)C` [Example 27, (1R,2S,5S)-N-{(2S)-4-[(1-ethyl-3-methyl-1H-pyrazol-5-yl)oxy]-3-oxo-1-[(3S)-2-oxopyrrolidin-3-yl]butan-2-yl}-6,6-dimethyl-3-[3-methyl-N-(trifluoroacetyl)-L-valyl]-3-azabicyclo[3.1.0]hexane-2-carboxamide], in assay [1], the EC50 turned out to be 422 nM. Also, the Ki at SARS-CoV-2 3CL protease (setting [3]) was 8.84 nM.

Consider `CC(C)(C)[C@H](NS(=O)(=O)C(F)(F)F)C(=O)N1C[C@H]2[C@@H]([C@H]1C(=O)N[C@@H](C[C@@H]1CCNC1=O)C(=O)COc1cccc(Cl)c1)C2(C)C` [Example 28, (1R,2S,5S)-N-{(2S)-4-(3-chlorophenoxy)-3-oxo-1-[(3S)-2-oxopyrrolidin-3-yl]butan-2-yl}-6,6-dimethyl-3-[3-methyl-N-(trifluoromethanesulfonyl)-L-valyl]-3-azabicyclo[3.1.0]hexane-2-carboxamide], for which, in assay [1], the EC50 came to 16.8 nM. Further, the inhibition constant Ki on SARS-CoV-2 3CL protease (setting [3]) is 2.15 nM.
